Measurements as given in paper PMC8438627 (The Journal of Cell Biology, 2021).

Test system: NAP1L4
Assay: IP-IB of HA-tagged
Type: binding
Details: HA-tagged (PR)12 mixed with HEK293 cell lysates containing increasing concentrations of 1,6-hexanediol

OCCCCCCO [1,6-hexanediol]
immunoprecipitated NAP1L4 signal with increasing 1,6-hexanediol: faded accordingly
